Laboratory results published in PubChem BioAssay (NCI).
“And” between values parts separate entries of the source, which are not always exact repeats. Identical values can stand only once.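 Exposure lasted 48 hours, with cells grown in 96-well plates and compounds tested at five concentrations. Abbreviation: GI50, concentration required for 50% inhibition of growth. TGI marks complete inhibition of growth.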

Tests used:
Assay in all cases: NCI tumour cell line growth inhibition, 48 h
DMS 114 small cell lung = tested on: DMS 114 small cell lung
HCT-116 colon = tested on: HCT-116 colon
HT29 colon = tested on: HT29 colon
NCI-H23 lung = tested on: NCI-H23 lung
M19-MEL melanoma = tested on: M19-MEL melanoma
SNB-78 CNS = tested on: SNB-78 CNS
UACC-257 melanoma = tested on: UACC-257 melanoma
A498 renal = tested on: A498 renal
NCI-H226 lung = tested on: NCI-H226 lung
HCT-15 colon = tested on: HCT-15 colon
DLD-1 colon = tested on: DLD-1 colon
SK-OV-3 ovarian = tested on: SK-OV-3 ovarian
TK-10 renal = tested on: TK-10 renal
MCF7 breast = tested on: MCF7 breast
T-47D breast = tested on: T-47D breast

SMILES	TGI (DMS 114 small cell lung)	TGI (HCT-116 colon)	TGI (HT29 colon)	TGI (NCI-H23 lung)	TGI (M19-MEL melanoma)	TGI (SNB-78 CNS)	TGI (UACC-257 melanoma)	TGI (A498 renal)	TGI (NCI-H226 lung)	TGI (HCT-15 colon)	TGI (DLD-1 colon)	TGI (SK-OV-3 ovarian)	TGI (TK-10 renal)	TGI (MCF7 breast)	TGI (T-47D breast)	GI50 (HT29 colon)	GI50 (TK-10 renal)
Cc1ccc(NC(=O)/C(=N/NC(=O)C[N+](C)(C)C)c2nc3ccccc3[nH]c2=O)cc1	> 100 µM	> 100 µM	> 100 µM	> 100 µM	> 100 µM	> 100 µM	> 100 µM	> 100 µM	> 100 µM	> 100 µM	> 100 µM	> 100 µM	> 100 µM				
CC(=O)OCCOCNC(=S)N/N=C(\C)c1cccs1	> 100 µM	> 100 µM	> 100 µM	> 100 µM	> 100 µM	> 100 µM	> 100 µM	> 100 µM	> 100 µM	> 100 µM	> 100 µM	> 100 µM	> 100 µM				
C[N+](C)(C)CC(=O)N/N=C(/Cc1nc2ccc([N+](=O)[O-])cc2[nH]c1=O)C(=O)Nc1cc(C(F)(F)F)ccc1Cl	> 100 µM	> 100 µM	> 100 µM	> 100 µM	> 100 µM		> 100 µM	> 100 µM			> 100 µM	> 100 µM	> 100 µM				
CCN(CC)C1Oc2cc3c(cc2C(c2cccc(OC)c2O)C1C)OCO3 (stereo not given)		21.1 µM	27.5 µM	43.5 µM			> 50.4 µM	7.24 µM	13.3 µM	> 53.2 µM		> 61.3 µM	> 100 µM	> 46 µM	> 86 µM		
Cc1c2cccc-2c(OCCOC(=O)n2ccnc2)cc2c1[nH]c1ccccc12		10.3 µM	5.22 µM	6.31 µM			6.24 µM	21 µM	8.13 µM	5.95 µM		18.8 µM	14.4 µM	19.5 µM	8.15 µM		
COc1cc(/C=C/C(=N\NC(=S)NN)c2sc(NNC(C)=O)nc2C)ccc1O		> 100 µM	> 100 µM	> 100 µM			> 100 µM	> 100 µM	> 100 µM	> 100 µM		> 100 µM	> 100 µM	> 100 µM	> 100 µM		
COc1cc2c(c(OC)c1OC)-c1ccc(SC)c(=O)cc1[C@@H](NCc1cccc([N+](=O)[O-])c1)CC2		< 0.01 µM	< 0.01 µM	< 0.01 µM	> 100 µM	> 100 µM	> 100 µM		< 0.01 µM		> 100 µM	> 100 µM	> 100 µM				
CC(=O)c1[nH]c(Nc2ccc(C)cc2)c(C(=S)Nc2ccccc2)c1N		35.4 µM	> 100 µM	42.8 µM			36.5 µM	28.8 µM	32.4 µM	46.1 µM		> 100 µM	35.5 µM	30.6 µM	37.2 µM		
CN(C)CC1CCCc2ccccc2C1=O (stereo not given)		3.26 µM	3.38 µM	15.2 µM			18.9 µM	49.6 µM	48.8 µM	4.55 µM		32.7 µM	14.7 µM	0.644 µM	17 µM		
C[C@@]12C[C@@H](c3ccccc3O1)N1Cc3ccccc3CSC1=N2		> 100 µM	> 100 µM	> 100 µM			> 100 µM	> 100 µM	> 100 µM	> 100 µM		> 100 µM	> 100 µM	> 100 µM	> 100 µM		
COc1cc2c(c(OC)c1OC)-c1ccc(SC)c(=O)cc1[C@@H](NC(=O)c1ccc([N+](=O)[O-])cc1)CC2	0.89 µM	7.28 µM and 11.7 µM			25 µM and > 100 µM	25 µM		3.57 µM			25 µM and > 100 µM	0.0575 µM	25 µM and > 100 µM			< 0.0025 µM	0.0344 µM
O=C(/C=C/c1ccccc1)Oc1cccc(Br)c1		> 100 µM	> 100 µM	> 100 µM			> 100 µM	> 100 µM	> 100 µM	42.2 µM		> 100 µM	> 100 µM	47.4 µM	> 100 µM		
Cn1nc2ccc3nccc(NCCNCCO)c3c2n1		89.4 µM	70 µM	> 100 µM	> 100 µM	> 100 µM	76.9 µM		85.8 µM	> 100 µM	> 100 µM	> 100 µM	> 100 µM				
COc1cc(C(O)C(=O)c2cnc3cc([N+](=O)[O-])ccc3n2)ccc1O (stereo not given)	> 100 µM	> 100 µM	> 100 µM		> 100 µM		> 100 µM	> 100 µM		> 100 µM	> 100 µM	> 100 µM	> 100 µM				
COc1ccc(Cn2c3ccc([N+](=O)[O-])cc3c(=O)n2Cc2ccccn2)cc1		> 100 µM	> 100 µM	> 100 µM			> 100 µM	> 100 µM	> 100 µM	> 100 µM		> 100 µM	> 100 µM	> 100 µM	77.4 µM		
CC(C)=CCC[C@@H](C)C1=CC(=O)C(C)=C(O)C1=O		11.8 µM	22.5 µM	21.1 µM			25.5 µM	34.9 µM	22.8 µM	8.08 µM		31.8 µM	15.7 µM	16 µM	6.35 µM		
COC12C=CC(CC1)C(C)(C)C2OS(C)(=O)=O (stereo not given)		> 100 µM	> 100 µM	> 100 µM			> 100 µM	> 100 µM	> 100 µM	> 100 µM		> 100 µM	> 100 µM	> 100 µM	> 100 µM		
COc1ccc(N2N=NN(C(C)C)/C2=C(/Cl)c2nnnn2-c2ccc(OC)cc2)cc1		14.1 µM	24.4 µM	33 µM			28.9 µM	30.5 µM	42.2 µM	31.4 µM		32.8 µM	30.1 µM	22.6 µM	15.3 µM		
COc1ccc(CCCN2c3ccccc3Sc3ccccc32)cc1	> 100 µM	> 100 µM	> 100 µM	> 100 µM		> 100 µM	> 100 µM	> 100 µM	> 100 µM	> 100 µM	> 100 µM	> 100 µM	> 100 µM				
